The values below come from ChEMBL document CHEMBL5465560, “Selectivity Literature for EUbOPEN Chemogenomic Library” (2024).

One may read the IC50 as the point on the concentration scale where inhibition reaches its midpoint. By EC50 is commonly meant the concentration needed to bring the measured effect to its halfway point. Lower therefore signals a more potent agent.

For experiment [1], the target named is T1, Protein arginine N-methyltransferase 1 (Homo sapiens, UniProt Q99873). The experiment in a line: Selectivity interaction (Scintillation proximity assay) EUB0000261b PRMT1. A general note: In a scintillation proximity assay essentially only radioactivity close to the scintillant gives light.
T1 sequence (Q99873 whole entry): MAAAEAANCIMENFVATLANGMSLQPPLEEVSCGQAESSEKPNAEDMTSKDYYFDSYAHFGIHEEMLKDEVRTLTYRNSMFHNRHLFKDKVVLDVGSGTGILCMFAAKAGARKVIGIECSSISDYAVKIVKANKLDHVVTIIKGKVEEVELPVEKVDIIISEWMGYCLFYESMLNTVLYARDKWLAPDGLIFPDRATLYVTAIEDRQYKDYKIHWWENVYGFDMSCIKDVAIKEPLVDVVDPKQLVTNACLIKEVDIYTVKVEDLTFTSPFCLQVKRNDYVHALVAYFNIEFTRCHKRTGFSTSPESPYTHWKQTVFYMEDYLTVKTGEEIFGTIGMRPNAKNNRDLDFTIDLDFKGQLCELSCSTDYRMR
Experiment [2] concerns the target Protein arginine N-methyltransferase 3 (Homo sapiens, UniProt O60678). As to the kind of experiment: Selectivity interaction (Scintillation proximity assay) EUB0000261b PRMT3.
Experiment [3] addresses T2, Histone-arginine methyltransferase CARM1 (Homo sapiens, UniProt Q86X55).
T2 sequence (Q86X55 whole entry): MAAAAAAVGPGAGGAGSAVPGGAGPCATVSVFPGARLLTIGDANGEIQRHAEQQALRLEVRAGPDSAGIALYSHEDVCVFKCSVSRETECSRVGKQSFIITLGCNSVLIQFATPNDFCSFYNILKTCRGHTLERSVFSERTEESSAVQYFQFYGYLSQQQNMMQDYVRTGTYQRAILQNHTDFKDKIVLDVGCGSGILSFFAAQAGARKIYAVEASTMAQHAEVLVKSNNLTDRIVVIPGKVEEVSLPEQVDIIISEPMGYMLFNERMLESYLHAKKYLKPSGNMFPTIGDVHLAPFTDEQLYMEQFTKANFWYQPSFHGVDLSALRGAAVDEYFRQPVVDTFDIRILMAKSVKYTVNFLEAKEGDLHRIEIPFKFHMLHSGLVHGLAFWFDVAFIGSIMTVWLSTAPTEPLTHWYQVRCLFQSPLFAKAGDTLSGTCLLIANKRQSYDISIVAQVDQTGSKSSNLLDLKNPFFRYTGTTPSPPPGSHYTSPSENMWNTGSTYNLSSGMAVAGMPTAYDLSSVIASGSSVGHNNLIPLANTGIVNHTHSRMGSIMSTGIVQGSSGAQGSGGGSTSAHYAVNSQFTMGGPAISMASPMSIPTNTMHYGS
The experiment in a line: Selectivity interaction (Scintillation proximity assay) EUB0000261b CARM1.

For experiment [4], the target named is T3, Protein arginine N-methyltransferase 6 (Homo sapiens, UniProt Q96LA8). The experiment in a line: Selectivity interaction (Scintillation proximity assay) EUB0000261b PRMT6.
T3 sequence (Q96LA8 whole entry): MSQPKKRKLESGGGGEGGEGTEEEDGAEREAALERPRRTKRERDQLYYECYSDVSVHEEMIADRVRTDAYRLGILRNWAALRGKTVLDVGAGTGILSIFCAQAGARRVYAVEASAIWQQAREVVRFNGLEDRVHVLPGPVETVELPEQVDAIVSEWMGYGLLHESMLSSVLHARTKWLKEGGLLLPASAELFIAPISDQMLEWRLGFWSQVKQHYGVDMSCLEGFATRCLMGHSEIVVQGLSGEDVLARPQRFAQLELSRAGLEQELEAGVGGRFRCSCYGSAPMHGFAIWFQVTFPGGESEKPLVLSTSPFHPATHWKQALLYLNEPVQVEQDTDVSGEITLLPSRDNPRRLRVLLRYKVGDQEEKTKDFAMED
Experiment [5] has as its target Protein arginine N-methyltransferase 8 (Homo sapiens, UniProt Q9NR22). As to the kind of experiment: Selectivity interaction (Scintillation proximity assay) EUB0000261b PRMT8.
In experiment [6] the target is T2, Histone-arginine methyltransferase CARM1. As to the kind of experiment: Selectivity interaction (Western blot assay (PRMT4 dependent BAF155 asymmetric arginine dimethylation)) EUB0000236b CARM1. For orientation: A western blot detects proteins with antibodies after separation by electrophoresis.
Experiment [7] deals with Protein arginine N-methyltransferase 5 (Homo sapiens, UniProt O14744). The experiment in a line: Selectivity interaction (Western blot assay (PRMT5 dependent SmB symmetric arginine dimethylation)) EUB0000236b PRMT5.
Protein arginine N-methyltransferase 5, sequence (O14744 whole entry): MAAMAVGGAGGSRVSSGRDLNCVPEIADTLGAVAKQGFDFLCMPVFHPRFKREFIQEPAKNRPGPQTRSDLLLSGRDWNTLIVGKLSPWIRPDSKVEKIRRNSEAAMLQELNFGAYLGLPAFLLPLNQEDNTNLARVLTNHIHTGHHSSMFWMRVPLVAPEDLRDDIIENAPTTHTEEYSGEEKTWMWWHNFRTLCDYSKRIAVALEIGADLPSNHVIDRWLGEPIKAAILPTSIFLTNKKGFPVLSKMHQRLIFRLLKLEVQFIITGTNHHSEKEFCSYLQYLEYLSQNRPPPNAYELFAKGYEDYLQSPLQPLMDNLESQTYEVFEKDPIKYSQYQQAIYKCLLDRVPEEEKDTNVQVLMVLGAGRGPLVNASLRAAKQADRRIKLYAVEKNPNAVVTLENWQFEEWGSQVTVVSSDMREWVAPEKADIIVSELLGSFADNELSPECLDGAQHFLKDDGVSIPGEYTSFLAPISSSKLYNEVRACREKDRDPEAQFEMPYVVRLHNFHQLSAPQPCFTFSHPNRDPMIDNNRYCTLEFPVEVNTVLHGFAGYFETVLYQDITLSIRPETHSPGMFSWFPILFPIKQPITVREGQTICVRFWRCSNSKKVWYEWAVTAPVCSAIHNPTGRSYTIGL
Experiment [8] deals with T1, Protein arginine N-methyltransferase 1. The experiment in a line: Selectivity interaction (Western blot assay (PRMT1 dependent H4R3 asymmetric arginine dimethylation)) EUB0000236b PRMT1.
Experiment [9] deals with T3, Protein arginine N-methyltransferase 6. As to the kind of experiment: Selectivity interaction (Western blot assay (PRMT6 dependent H4R3 asymmetric arginine dimethylation)) EUB0000236b PRMT6.
For experiment [10], the target named is T4, Protein arginine N-methyltransferase 9 (Homo sapiens, UniProt Q6P2P2).
T4 sequence (Q6P2P2 whole entry): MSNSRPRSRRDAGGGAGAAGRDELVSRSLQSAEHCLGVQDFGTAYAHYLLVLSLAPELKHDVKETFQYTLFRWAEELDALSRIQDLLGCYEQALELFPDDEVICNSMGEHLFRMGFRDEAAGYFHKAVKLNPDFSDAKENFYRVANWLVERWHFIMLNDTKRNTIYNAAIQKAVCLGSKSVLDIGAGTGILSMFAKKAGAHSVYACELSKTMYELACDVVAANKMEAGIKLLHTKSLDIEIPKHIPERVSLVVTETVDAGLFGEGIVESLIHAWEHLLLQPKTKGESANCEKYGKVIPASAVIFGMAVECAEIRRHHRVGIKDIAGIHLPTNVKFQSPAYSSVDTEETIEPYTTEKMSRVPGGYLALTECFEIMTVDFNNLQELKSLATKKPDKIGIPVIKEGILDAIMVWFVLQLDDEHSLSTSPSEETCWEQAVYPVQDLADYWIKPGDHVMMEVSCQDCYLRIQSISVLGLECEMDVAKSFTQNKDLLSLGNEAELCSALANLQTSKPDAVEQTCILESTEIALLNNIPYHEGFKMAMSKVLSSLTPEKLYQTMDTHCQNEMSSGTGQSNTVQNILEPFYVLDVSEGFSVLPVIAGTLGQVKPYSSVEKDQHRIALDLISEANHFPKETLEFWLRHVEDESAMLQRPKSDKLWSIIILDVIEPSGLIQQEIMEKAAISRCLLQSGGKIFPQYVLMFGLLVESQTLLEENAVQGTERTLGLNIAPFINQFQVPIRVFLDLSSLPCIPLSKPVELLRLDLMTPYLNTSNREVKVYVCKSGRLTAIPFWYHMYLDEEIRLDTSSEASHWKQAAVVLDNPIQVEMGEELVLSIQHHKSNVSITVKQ
The experiment in a line: Selectivity interaction (Western blot assay (PRMT9 dependent SAP145 […] arginine dimethylation)) EUB0000236b PRMT9.

Experiment [11] addresses Histone-lysine N-methyltransferase, H3 lysine-79 specific (Homo sapiens, UniProt Q8TEK3). As to the kind of experiment: Selectivity interaction (Western blot assay (DOT1L dependent H3K79 lysine dimethylation) ) EUB0000236b DOT1L.

Protein arginine N-methyltransferase 3, sequence (O60678 whole entry): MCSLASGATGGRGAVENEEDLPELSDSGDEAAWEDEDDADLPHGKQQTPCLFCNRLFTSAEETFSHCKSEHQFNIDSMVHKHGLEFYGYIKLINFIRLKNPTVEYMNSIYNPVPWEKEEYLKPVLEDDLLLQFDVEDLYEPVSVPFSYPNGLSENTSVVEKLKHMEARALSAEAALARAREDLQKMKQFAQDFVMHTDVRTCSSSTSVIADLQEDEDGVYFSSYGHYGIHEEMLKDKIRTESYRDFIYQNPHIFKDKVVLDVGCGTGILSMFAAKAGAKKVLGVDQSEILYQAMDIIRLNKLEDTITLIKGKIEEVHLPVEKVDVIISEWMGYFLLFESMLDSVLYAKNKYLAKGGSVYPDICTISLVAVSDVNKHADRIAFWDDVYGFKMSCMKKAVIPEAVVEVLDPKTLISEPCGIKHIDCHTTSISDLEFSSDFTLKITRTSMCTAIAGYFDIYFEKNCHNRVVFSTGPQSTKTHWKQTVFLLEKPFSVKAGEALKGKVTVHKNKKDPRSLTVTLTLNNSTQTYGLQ
Histone-lysine N-methyltransferase, H3 lysine-79 specific, sequence (Q8TEK3 whole entry): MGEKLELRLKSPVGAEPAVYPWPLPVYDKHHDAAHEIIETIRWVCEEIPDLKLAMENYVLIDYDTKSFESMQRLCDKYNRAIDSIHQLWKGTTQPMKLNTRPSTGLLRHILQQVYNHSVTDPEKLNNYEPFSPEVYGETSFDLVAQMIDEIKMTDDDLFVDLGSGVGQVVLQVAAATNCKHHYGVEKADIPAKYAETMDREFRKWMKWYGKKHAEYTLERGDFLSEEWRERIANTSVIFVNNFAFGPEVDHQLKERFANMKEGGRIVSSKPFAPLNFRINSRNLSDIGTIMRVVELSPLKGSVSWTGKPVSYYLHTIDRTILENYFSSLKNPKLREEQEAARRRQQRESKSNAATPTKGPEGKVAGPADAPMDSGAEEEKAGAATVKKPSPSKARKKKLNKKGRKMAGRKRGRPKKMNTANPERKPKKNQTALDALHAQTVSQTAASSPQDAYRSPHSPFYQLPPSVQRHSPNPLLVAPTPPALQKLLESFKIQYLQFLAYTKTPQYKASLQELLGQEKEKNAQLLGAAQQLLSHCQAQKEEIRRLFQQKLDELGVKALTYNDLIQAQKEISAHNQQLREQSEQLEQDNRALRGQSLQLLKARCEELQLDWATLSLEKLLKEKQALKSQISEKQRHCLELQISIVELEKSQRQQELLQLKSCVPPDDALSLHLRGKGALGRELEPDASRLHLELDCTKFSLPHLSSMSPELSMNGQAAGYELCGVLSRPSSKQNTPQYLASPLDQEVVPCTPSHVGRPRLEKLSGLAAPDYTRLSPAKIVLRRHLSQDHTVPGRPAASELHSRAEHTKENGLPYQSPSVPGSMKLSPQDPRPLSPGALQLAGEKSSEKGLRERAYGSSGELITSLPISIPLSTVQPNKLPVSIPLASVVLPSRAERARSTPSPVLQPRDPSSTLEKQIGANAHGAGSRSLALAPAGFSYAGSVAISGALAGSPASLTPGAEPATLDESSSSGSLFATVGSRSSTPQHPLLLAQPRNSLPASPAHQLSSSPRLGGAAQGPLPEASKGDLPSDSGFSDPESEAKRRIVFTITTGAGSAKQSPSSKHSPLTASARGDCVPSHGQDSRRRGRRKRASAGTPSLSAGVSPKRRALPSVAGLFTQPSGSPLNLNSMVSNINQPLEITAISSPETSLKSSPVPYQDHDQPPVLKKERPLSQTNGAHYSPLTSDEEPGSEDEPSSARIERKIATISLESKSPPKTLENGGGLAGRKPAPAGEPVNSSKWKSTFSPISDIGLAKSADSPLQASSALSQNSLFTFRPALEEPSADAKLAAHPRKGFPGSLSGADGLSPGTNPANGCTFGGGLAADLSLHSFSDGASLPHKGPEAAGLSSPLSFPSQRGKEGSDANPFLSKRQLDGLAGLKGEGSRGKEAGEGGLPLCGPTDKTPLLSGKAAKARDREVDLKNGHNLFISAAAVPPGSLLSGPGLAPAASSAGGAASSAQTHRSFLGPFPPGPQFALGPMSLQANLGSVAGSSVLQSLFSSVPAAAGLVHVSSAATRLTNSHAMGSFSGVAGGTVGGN
Protein arginine N-methyltransferase 8, sequence (Q9NR22 whole entry): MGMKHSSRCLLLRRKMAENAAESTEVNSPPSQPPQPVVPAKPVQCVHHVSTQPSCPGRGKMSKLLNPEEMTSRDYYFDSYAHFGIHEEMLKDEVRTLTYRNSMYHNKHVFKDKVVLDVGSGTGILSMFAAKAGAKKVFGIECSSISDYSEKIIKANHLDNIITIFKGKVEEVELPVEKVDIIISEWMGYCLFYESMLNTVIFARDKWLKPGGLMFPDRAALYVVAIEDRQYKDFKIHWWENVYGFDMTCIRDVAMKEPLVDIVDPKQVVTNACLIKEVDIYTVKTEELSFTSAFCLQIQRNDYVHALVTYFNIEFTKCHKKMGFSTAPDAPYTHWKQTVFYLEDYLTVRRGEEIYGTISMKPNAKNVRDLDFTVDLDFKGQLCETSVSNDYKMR

As for `CC(C)Oc1ccc(-c2c[nH]cc2CN(C)CCO)cc1`, the IC50 in experiment [1], in experiment [2], in [3], in experiment [4] and in experiment [5] was more than 20000 nM throughout.
Take `CC1=C(C)C(=O)C(C(C)(C)CC(=O)N(CCCCSC[C@H]2O[C@@H](n3cnc4c(N)ncnc43)[C@@H]3OC(C)(C)O[C@@H]32)Cc2cccc(-c3ccc(Cl)cc3)c2)=C(C)C1=O`: the EC50 in experiment [6], in [7], in experiment [8], in experiment [9], in experiment [10] and in [11] was more than 5 nM each time.
